The solubility is the concentration that dissolves in the medium under given conditions.

Entries after “also recorded” stand apart in the source; their conditions may differ.

One series concerns mutant EGFR kinase. Nature of the series: Enzymatic and cellular assays of EGFR kinase inhibition. The series is classed as biochemical.
The test system of series [1] is human non-small cell lung cancer cell. Nature of the series: Non-small cell lung cancer cell proliferation in vitro. Type of series: cell-based.
Series [2] shares this test system. Nature of the series: Non-small cell lung cancer cell proliferation in vivo.
Series [3] in a line: Aqueous solubility: slurries in deionised water, HPLC. The note with it: slurry in deionised water shaken ca. 24 hours. The series is classed as physicochemical. How it is done:
Slurries of all each polymorphic form were created in deionised water and shaken for ca. 24 hours. The resulting solid was then analysed by HPLC to determine the concentration of material dissolved.

A short description of series [4]: Dynamic vapour sorption (DVS) with post DVS XRPD. The series is classed as physicochemical. How it is done:
For dynamic vapour sorption (DVS), approximately 10 mg of sample was placed into a wire mesh vapour sorption balance pan and loaded into a DVS-1 dynamic vapour sorption balance by Surface Measurement Systems. The sample was subjected to a ramping profile from 20-90% relative humidity (RH) at 10% increments, maintaining the sample at each step until a stable weight had been achieved (99.5% step completion). After completion of the sorption cycle, the sample was dried using the same procedure, but all the way down to 0% RH and finally taken back to the starting point of 20% RH. The weight change during the sorption/desorption cycles were plotted, allowing for the hygroscopic nature of the sample to be determined.

Series [5] can be described thus: Stability at 40° C./75% RH for 1 week and 2 weeks (XRPD and HPLC). The series is classed as physicochemical. The note with it: open container. How it is done: Samples of each form were exposed to an environment of 40° C./75% RH for 1 week and 2 week periods to determine stability. Resulting solids were analysed by XRPD and HPLC to establish if any changes had occurred.

Series [6] is described as follows: Competitive slurries at ambient and 60° C. (polymorph stability studies). Type of series: physicochemical. The note with it: slurrying at ambient and 60° C. How it is done:
The results from the competitive slurries carried out at ambient (ca. 22° C.) and 60° C. are tabulated below.

A short description of series [7]: XRPD after heating or drying (solid form conversion). The series is classed as physicochemical. The settings on record: heated to 115° C. How it is done: X-ray powder diffraction (XRPD) analysis was carried out on a Siemens D5000, scanning the samples between 3 and 30 or 50° 2-theta. For samples <100 mg, ca. 5-10 mg of sample was gently compressed onto a glass slide which fitted into the sample holder. For samples >100 mg, ca. 100 mg of sample was gently compressed into a plastic sample holder, so that the sample surface was smooth and just above the level of the sample holder. Measurements were made as follows: In order to determine the relationship between Forms A and B, a sample of Form B was heated to 120° C. and then XRPD analysis was carried out. […] To determine whether Form C remains the same after losing the solvent present, a sample of Form C was heated to 120° C. (i.e., just past the temperature at which the solvent is removed) and then XRPD analysis was carried out. […] In order to determine whether Form E remains the same after losing the solvent present, a sample of Form E was heated to 120° C. (i.e., just past the temperature at which the solvent is lost) and then XRPD analysis was carried out. […] In order to determine whether Form F remains the same after losing the solvent present, a sample of Form F was heated to 120° C. (i.e., just past the temperature at which the solvent is lost) and then XRPD analysis was carried out. […] To examine whether Form H changes to Form A after heating to 115° C. (point after the solvent loss), the Form H material was heated to 115° C. and XRPD analysis and DSC analysis were then carried out. […] The DSC analysis (FIG. 49) indicated overlapping endotherms between ca. 115-135° C., followed by an exotherm at peak 143.9° C., likely indicating a polymorphic transition. A final endotherm was present at onset 202.7° C. (peak 206.6° C.) corresponding with the Form A melt.

Series [8] is described as follows: TGA of dehydrated material after standing on the bench (water pick-up). The series is classed as physicochemical. The settings on record: heated to 115° C., then on the bench ca. 1 hour at ambient. How it is done: To test whether Form H picks up water after desolvating/dehydrating the material by heating to 115° C., a further test was carried out whereby Form H was heated to 115° C. in a TGA pan. The sample was then removed from the TGA pan and allowed to sit on the bench for ca. 1 hour. After 1 hour, another TGA was carried out up to 115° C. […] (FIG. 51).

A short description of series [9]: 7 day stability studies of Form I at 25° C., 80° C., 40° C./75% RH (open and closed). Type of series: physicochemical. How it is done:
Approximately 15 mg of Form I was placed separately into vials and then exposed to 25° C., 80° C. and 40° C./75% RH environments (open and closed vials) for 1 week to determine stability. The resulting solids were analysed by XRPD and HPLC to establish if any changes had occurred. Results are presented in Tables 2 and 3 and FIGS. 62 and 63.

The nature of series [10]: Thermodynamic solubility studies at various pH. The series is classed as physicochemical. The settings on record: for solubility at 24 h: thermodynamic from solid. How it is done: Slurries of Form I were created in media of various pH (pH 1; pH 3; pH 4.5 and pH 6.6) and shaken for ca. 24 hours. After 24 hours, the slurries were filtered and the solution analysed by HPLC in order to determine the solubility at the various pH levels. For the buffer solutions, KCl/HCl was used for pH 1 and citrate/phosphate combinations for pH 3, 4.5 and 6.6 (10 mM). The pH of the solutions was also measured prior to HPLC analysis. XRPD analysis was carried out on the remaining solids after 24 hours of shaking.

The mark [11] stands for this setting: closed container, 40° C./75% RH.

Regarding `C=CC(=O)Nc1cccc(Nc2nc(Nc3ccc(N4CCN(C(C)=O)CC4)cc3OC)ncc2C(F)(F)F)c1` [Compound 1, N-(3-(2-(4-(4-acetylpiperazin-1-yl)-2-methoxyphenylamino)-5-(trifluoromethyl)pyrimidin-4-ylamino)phenyl)acrylamide], in the series on mutant EGFR kinase, the “selectivity for mutant EGFR as compared to wild-type EGFR” value was “selective inhibitor of at least one mutation of EGFR”. In addition, the “inhibition of mutant EGFR kinase” value in the series with mutant EGFR kinase (enzymatic and cellular assays) is “selective covalent, irreversible inhibition of mutant EGFR kinase”. In addition, the “inhibition of cell proliferation” value in series [1] and in series [2] was “inhibit human non-small cell lung cancer cell proliferation” throughout.

`C=CC(=O)Nc1cccc(Nc2nc(Nc3ccc(N4CCN(C(C)=O)CC4)cc3OC)ncc2C(F)(F)F)c1` [Form A, N-(3-(2-(4-(4-acetylpiperazin-1-yl)-2-methoxyphenylamino)-5-(trifluoromethyl)pyrimidin-4-ylamino)phenyl)acrylamide]: the “detection by HPLC analysis for the aqueous solubility” value in series [3] is recorded as “could not be detected”. The aqueous solubility entry in series [3] (assessment in words) is recorded as “poor”. Further, in series [4], the “Post DVS XRPD (solid form)” value is listed as “remained Form A” and the “hygroscopicity (DVS)” value was “non-hygroscopic”. The compound further came in with a DVS water uptake in [4] (between 20 and 70% RH) of 0.87%. Moreover, in series [5] (1 week), the “HPLC purity after storage” value is “ca. 97.5%” and the “XRPD analysis after storage” value is “still be consistent with Form A, with some loss in crystallinity”. Besides, in series [5] (2 week), the “HPLC purity after storage” value is listed as “ca. 96.3%” and the “XRPD analysis after storage” value is recorded as “still be consistent with Form A, however, it became poorly crystalline”. For the same compound, in series [6], the relative polymorph stability result is on record as “likely the more stable form in comparison with Form B”.

Turning to `C=CC(=O)Nc1cccc(Nc2nc(Nc3ccc(N4CCN(C(C)=O)CC4)cc3OC)ncc2C(F)(F)F)c1` [Form H, N-(3-(2-(4-(4-acetylpiperazin-1-yl)-2-methoxyphenylamino)-5-(trifluoromethyl)pyrimidin-4-ylamino)phenyl)acrylamide], the XRPD after heating entry in series [7] is listed as “still corresponded with Form H, with some loss in crystallinity”. Also, the “water pick-up of desolvated/dehydrated material” value in [8] is “picked up water upon standing at ambient conditions”.

Turning to `C=CC(=O)Nc1cccc(Nc2nc(Nc3ccc(N4CCN(C(C)=O)CC4)cc3OC)ncc2C(F)(F)F)c1` [Form I, N-(3-(2-(4-(4-acetylpiperazin-1-yl)-2-methoxyphenylamino)-5-(trifluoromethyl)pyrimidin-4-ylamino)phenyl)acrylamide], the “Post DVS XRPD (solid form)” value in series [4] is “remained as Form I”. Also, the “hygroscopicity (DVS)” value in series [4] is recorded as “relatively non-hygroscopic”. Further, the DVS mass uptake entry in [4] (Cycle 1, sorption 20-90% RH) was “ca. 0.66%”. Moreover, the “DVS rapid mass loss” value in series [4] (Cycle 2, desorption, between 10-0% RH) is “ca. 2.7%”. The DVS mass decrease entry in [4] (Cycle 2, desorption, between 90-10% RH) is reported as “ca. 1.2%”. The DVS moisture uptake entry in [4] (Cycle 3, sorption, between 0-20% RH) is “ca. 2.8%”. Moreover, the “Purity after 1 week” value in [9] (closed container, 25° C.) was 99.4%; in [9] (setting [11]), 99.3%; in [9] (closed container, 80° C.), 99.2%; in [9] (open container, 25° C.) it was 98.7%; in series [9] (open container, 40° C./75% RH), 98.9%; in series [9] (open container, 80° C.), 98.5%. Also, the “XRPD Analysis after 1 week” value in series [9] (closed container, 25° C.) was “Form I”; in series [9] (setting [11]), “Form I; also recorded: (some loss in crystallinity)”; in series [9] (closed container, 80° C.), “Form I; also recorded: (some loss in crystallinity)”; in [9] (open container, 25° C.), “Form I”; in [9] (open container, 40° C./75% RH) it was “Form I”; in series [9] (open container, 80° C.), “Form I; also recorded: (some loss in crystallinity)”. The solubility at 24 h in series [10] (aqueous buffer, buffer pH 3 (citrate/phosphate), pH prior to analysis 2.26, ca. 24 hours) was 23 µg/mL; in series [10] (aqueous buffer, buffer pH 4.5 (citrate/phosphate), pH prior to analysis 3.38, ca. 24 hours) it was 2 µg/mL; in series [10] (simulated gastric fluid, buffer pH 1 (KCl/HCl), pH prior to analysis 0.95, ca. 24 hours), 3270 µg/mL. The Solubility entry in [10] (buffer pH 6.6 (citrate/phosphate), pH prior to analysis 5.04, ca. 24 hours) was “Not detected”. The “XRPD of solids remaining after thermodynamic solubility experiment” value in series [10] (pH 1, after 24 hours) was “mixture of Form I and possibly the HCl salt”; in series [10] (pH 6.6, 4.5 and 3.0, after 24 hours) it was “remained as Form I”.

The record behind these values is patent US10946016B2, “Solid forms of an epidermal growth factor receptor kinase inhibitor” (Celgene CAR LLC, priority 2012, dated 2021).
